For data set [1], the system named is Pseudomonas aeruginosa isolated strain 4891 (tolerance to antibiotics). The text has this:
(§1) To compare the antimicrobial activity among the peptides produced by the method of Example 1, the inventors of the present invention measured the minimal growth inhibitory concentration (MIC), which is minimum concentration of the peptide not allowing any […] of bacterial cells.
(§2) Specifically, the bacterial strains described in the following Table 2 were purchased and cultured to a mid-log phase in a medium that is appropriate for each strain. […] After the addition to a plate, the cells were cultured for 18 hours at 37° C. […] As a control, Pseudin-2 as a mother peptide was used.

The subject of data set [2] is Escherichia coli ATCC 25922. The following applies: ATCC 25922, 18 h.
Description: as §1, §2

Data set [3] deals with Escherichia coli CCARM 1229 (tolerance to antibiotics).
Description: as §1, §2

Data set [4] concerns Pseudomonas aeruginosa ATCC 27853. The following applies: ATCC 27853, 18 h.
Description: as §1, §2

The test system of data set [5] is Staphylococcus aureus CCARM 3090 (tolerance to antibiotics).
Description: as §1, §2

The test system of data set [6] is Bacillus subtilis KCTC 1998. The note with it: KCTC 1998, 18 h.
Description: as §1, §2

Data set [7] deals with Candida albicans KCTC 7270. The note with it: KCTC 7270, 18 h.
Description: as §1, §2

Data set [8] relates to Salmonella typhimurium KCTC 1926. The note with it: KCTC 1926, 18 h.
Description: as §1, §2

The test system of data set [9] is Listeria monocytogenes KCTC 3710. The note with it: KCTC 3710, 18 h.
Description: as §1, §2

Data set [10] concerns Pseudomonas aeruginosa isolated strain 4007 (tolerance to antibiotics).
Description: as §1, §2

Data set [11] concerns Trichosporon beigelii KCTC 7707. The following applies: KCTC 7707, 18 h.
Description: as §1, §2

Data set [12] relates to Escherichia coli CCARM 1238 (tolerance to antibiotics).
Description: as §1, §2

Data set [13] deals with Staphylococcus aureus ATCC 25923. The note with it: ATCC 25923, 18 h.
Description: as §1, §2

Data set [14] concerns Staphylococcus aureus CCARM 3518 (tolerance to antibiotics).
Description: as §1, §2

Data set [15] can be described thus: in vitro. The following applies: human, HaCaT keratinocyte cells. As for the experimental part: To determine the cytotoxicity of the peptides produced by the method of Example 1 in normal cell line, cytotoxicity was measured by using human keratinocyte cell line (HaCaT cell line, Dr. N E. Fusenig, Heidelberg, Germany).
Specifically, HaCaT cells, which have been cultured in DMEM medium containing 10% FBS (fetal bovine serum), were aliquoted in a microtiter plate to have 2×10^5 cells per well. […] Twenty-four hours later, a reaction solution containing 0.5 mg/ml MTT (thiazolyl blue tetrazolium bromide) dissolved in phosphate buffered saline (PBS) was added in an amount of 100 μl to each well and the reaction was allowed to occur for 4 hours. After that, the supernatant was discarded, and, by dissolving MTT crystals that are formed by adding 200 μl DMSO (dimethyl sulfoxide), the absorbance at 560 nm was measured to determine the cell survival ability.

Data set [16] concerns erythrocytes of a mouse (Balb/c). Description: Erythrocyte hemolytic activity. The following applies: 1 hour at 37° C. As to the method: To compare the cytotoxicity among the peptides that are produced by the method of Example 1, erythrocyte hemolytic activity of the synthesized peptide was measured.
After that, the amount of hemoglobin contained in a supernatant collected by centrifuge at 1,000×g was determined by measuring the absorbance at a wavelength of 414 nm. As a control to be used as a reference for cell disruption level, the supernatant collected by a treatment with 1% Triton X-100 (Sigma, USA) and a reaction for 1 hour at 37° C. was used to measure the absorbance. By setting the resulting absorbance value at 100% of the erythrocyte hemolytic activity, hemolysis of each peptide was calculated using the following equation 1. Erythrocyte disrupting ability (%)=(Absorbance A−Absorbance B)/(Absorbance C−Absorbance B)×100 Equation 1 (in the above equation, Absorbance A indicates the absorbance of a reaction solution treated with each peptide, in which the absorbance is measured at a wavelength of 414 nm; Absorbance B indicates the absorbance of a reaction solution treated with PBS, in which the absorbance is measured at a wavelength of 414 nm; and Absorbance C indicates the absorbance of a reaction solution treated with 1% Triton X-100, in which the absorbance is measured at a wavelength of 414 nm).

Ends that are not written are not given here.

As usually defined, the viability is a read-out of living cells in per cent, often relative to untreated cells.

On to “ALNALKKVSQGIHEAIKLIANHVQ-NH2 [Pse-Anal7]”, for which the Minimal inhibitory concentration in [1] is 32 µM; in data set [2] it was 8 µM; in data set [3] it was 16 µM; in [4] it was 8 µM; in data set [5], 32 µM; in data set [6], 16 µM. The Minimal inhibitory concentration in [7] came out at 32 µM; in [8] it was 8 µM; in data set [9], 16 µM; in data set [10] it was 32 µM; in data set [11] it was 32 µM; in data set [12] it was 16 µM. Besides, the Minimal inhibitory concentration is 16 µM in data set [13] and 32 µM in data set [14]. The substance further came in with a viability at 24 h, 3.13 µM in [15] (Cell survival ability) of 100%. Moreover, in data set [15] (Cell survival ability), the viability at 24 h, 6.25 µM came to 100%. Moreover, in data set [15] (Cell survival ability), the viability at 24 h, 12.5 µM came out at 100%. The substance also had a viability at 24 h, 25 µM in [15] (Cell survival ability) of 100%. Further, the viability at 24 h, 50 µM in [15] (Cell survival ability) is 100%. Moreover, the viability at 24 h, 100 µM in [15] (Cell survival ability) was found to be 100%.

In [15], “GLNALKKVFQGIHEAIKKINNHVQ-NH2 [Pse-18L-K]” came in with a viability at 24 h, 3.13 µM of 100%; a viability at 24 h, 6.25 µM of 100%; a viability at 24 h, 12.5 µM of 100%; a viability at 24 h, 25 µM of 100%. In data set [15], this substance showed a viability at 24 h, 50 µM of 100% and a viability at 24 h, 100 µM of 81.5%. In [16] (peptide concentration 3.13 μM), this substance registered an Erythrocyte disrupting ability of 2.4%. Also, the Erythrocyte disrupting ability in [16] (peptide concentration 6.25 μM) came out at 3.4%. In data set [16] (peptide concentration 12.5 μM), this substance came in with an Erythrocyte disrupting ability of 5.4%. Further, the Erythrocyte disrupting ability in data set [16] (peptide concentration 25 μM) came to 12.5%. This substance came in with an Erythrocyte disrupting ability in data set [16] (peptide concentration 50 μM) of 24.2%. The substance also registered an Erythrocyte disrupting ability in data set [16] (peptide concentration 100 μM) of 36.7%.

For “GLNALKKVSQGIHEAIKLINNHVQ-NH2 [Pse-Anal5]”, in data set [15], the viability at 24 h, 3.13 µM came out at 100%. The same substance gave a viability at 24 h, 6.25 µM in data set [15] of 100%. Moreover, the viability at 24 h, 12.5 µM in data set [15] was determined as 100%. The viability at 24 h, 25 µM in [15] was 100%. The same substance yielded a viability at 24 h, 50 µM in [15] of 96.3%. Besides, the viability at 24 h, 100 µM in data set [15] worked out at 83.5%. For the same substance, the Erythrocyte disrupting ability is on record as 0% in [16] (peptide concentration 3.13 μM); 0.7% in data set [16] (peptide concentration 6.25 μM); 2.3% in data set [16] (peptide concentration 12.5 μM); 5.9% in data set [16] (peptide concentration 25 μM); 11.7% in [16] (peptide concentration 50 μM); 20.1% in data set [16] (peptide concentration 100 μM).

Turning to “GLNALKKVSQGIHESIKLINNHVQ-NH2 [Pse-Anal6]”, the Minimal inhibitory concentration in data set [1] was 64 µM; in [2], 16 µM; in data set [3], 64 µM; in data set [4] it was 16 µM; in data set [5] it was 64 µM; in data set [6], 32 µM. The Minimal inhibitory concentration in data set [7] worked out at 64 µM; in [8], 16 µM; in data set [9], 32 µM; in data set [10], 64 µM; in data set [11], 64 µM; in [12], 64 µM. In addition, the Minimal inhibitory concentration in data set [13] was determined as 32 µM; in [14], 64 µM. Moreover, in [15] (Cell survival ability), the viability at 24 h, 3.13 µM was determined as 100%. The substance also returned a viability at 24 h, 6.25 µM in data set [15] (Cell survival ability) of 100%. In data set [15] (Cell survival ability), this substance displayed a viability at 24 h, 12.5 µM of 100%. Moreover, the viability at 24 h, 25 µM in data set [15] (Cell survival ability) was determined as 100%. The same substance had a viability at 24 h, 50 µM in data set [15] (Cell survival ability) of 100%. The substance also displayed a viability at 24 h, 100 µM in data set [15] (Cell survival ability) of 92.1%.

In data set [15], “WLNALKKVFQGIHEAIKLINNHVQ-NH2 [Pse-Anal1]” gave a viability at 24 h, 3.13 µM of 80.1%; a viability at 24 h, 6.25 µM of 35.2%; a viability at 24 h, 12.5 µM of 26.8%; a viability at 24 h, 25 µM of 15.9%. In data set [15], this substance registered a viability at 24 h, 50 µM of 13.6% and a viability at 24 h, 100 µM of 1.8%. In addition, the Erythrocyte disrupting ability in data set [16] (peptide concentration 3.13 μM) was determined as 50.9%. Also, the Erythrocyte disrupting ability in [16] (peptide concentration 6.25 μM) came to 58.6%. Further, in data set [16] (peptide concentration 12.5 μM), the Erythrocyte disrupting ability came out at 68.9%. Moreover, the Erythrocyte disrupting ability in [16] (peptide concentration 25 μM) is 82.0%. The Erythrocyte disrupting ability in [16] (peptide concentration 50 μM) is on record as 93.5%. Also, the Erythrocyte disrupting ability in data set [16] (peptide concentration 100 μM) is reported as 100%.

With “WLNALKKVFQGIHEAIKLIWNHVQ-NH2 [Pse-Anal2]”, the Minimal inhibitory concentration in [1] stood at 4 µM; in [2] it was 2 µM; in data set [3], 2 µM; in data set [4], 2 µM; in [5], 4 µM; in data set [6] it was 4 µM. In addition, the Minimal inhibitory concentration in [7] stood at 32 µM; in data set [8], 2 µM; in data set [9], 8 µM; in [10], 2 µM; in data set [11], 32 µM; in [12] it was 2 µM. In addition, the Minimal inhibitory concentration in data set [13] and in data set [14] was 4 µM in each case. In [15] (Cell survival ability), this substance gave a viability at 24 h, 3.13 µM of 81.3%. In data set [15] (Cell survival ability), this substance came in with a viability at 24 h, 6.25 µM of 48.1%. This substance also gave a viability at 24 h, 12.5 µM in data set [15] (Cell survival ability) of 32.2%. In addition, the viability at 24 h, 25 µM in [15] (Cell survival ability) stood at 18.8%. The same substance came in with a viability at 24 h, 50 µM in data set [15] (Cell survival ability) of 15.7%. Also, the viability at 24 h, 100 µM in data set [15] (Cell survival ability) was 5.1%.

As to “WLNALKKVFQGIHEAIKLIWNWVQ-NH2 [Pse-Anal3]”, the Minimal inhibitory concentration in data set [1] came to 64 µM; in [2], 16 µM; in data set [3] it was 32 µM; in data set [4] it was 16 µM; in data set [5] it was 32 µM; in [6] it was 32 µM. For the same substance, the Minimal inhibitory concentration was determined as 32 µM in data set [7]; 16 µM in data set [8]; 32 µM in [9]; 64 µM in data set [10]; 32 µM in data set [11]; 32 µM in data set [12]. Moreover, the Minimal inhibitory concentration in [13] and in data set [14] was 32 µM in each case. In data set [15] (Cell survival ability), this substance displayed a viability at 24 h, 3.13 µM of 55.4%. This substance showed a viability at 24 h, 6.25 µM in data set [15] (Cell survival ability) of 45.8%. The same substance came in with a viability at 24 h, 12.5 µM in [15] (Cell survival ability) of 25.6%. This substance also came in with a viability at 24 h, 25 µM in data set [15] (Cell survival ability) of 24.1%. The viability at 24 h, 50 µM in [15] (Cell survival ability) was 13.6%. Besides, the viability at 24 h, 100 µM in [15] (Cell survival ability) turned out to be 10.8%.

Source of the values: patent US12371459B2, “Antimicrobial peptide derived from Pseudin-2 peptide and uses thereof” (INDUSTRY-ACADEMIC COOPERATION FOUNDATION, CHOSUN UNIVERSITY, priority 2019, dated 2025).
